{"source": "patent US20250163104A1", "about": "“MACROCYCLIC IMMUNOMODULATORS” (priority 2021, published 2025)", "note": "Where a SMILES comes first, the peptide text is derived from it. Bridges are numbered along the chain shown (N, C = ends). [ ]: non-standard residue; d: D form. The star is where a group is joined. Ala(thiazol-5-yl) = N[C@@H](Cc1cncs1)C(=O)O; Bip = N[C@@H](Cc1ccc(-c2ccccc2)cc1)C(=O)O; Phe(3-Cl) = N[C@@H](Cc1cccc(Cl)c1)C(=O)O; Phe(3-OMe) = COc1cccc(C[C@H](N)C(=O)O)c1; 4Pal = N[C@@H](Cc1ccncc1)C(=O)O; Cha = N[C@@H](CC1CCCCC1)C(=O)O; hSer = N[C@@H](CCO)C(=O)O; Carboxymethyl = O=C(O)C*; Orn = NCCC[C@H](N)C(=O)O; Dab = NCC[C@H](N)C(=O)O; Dap = NC[C@H](N)C(=O)O; Bn = c1ccc(C*)cc1"}
{"molecular_target": "T1, human PD-1 / PD-L1-Ig binding on Jurkat cell line over-expressing human PD-1 (Jurkat-PD-1) (Homo sapiens, UniProt Q15116)", "T1 construct": "expressed in transfected cells; host or cells: Jurkat", "T1 sequence (Q15116 25-288)": "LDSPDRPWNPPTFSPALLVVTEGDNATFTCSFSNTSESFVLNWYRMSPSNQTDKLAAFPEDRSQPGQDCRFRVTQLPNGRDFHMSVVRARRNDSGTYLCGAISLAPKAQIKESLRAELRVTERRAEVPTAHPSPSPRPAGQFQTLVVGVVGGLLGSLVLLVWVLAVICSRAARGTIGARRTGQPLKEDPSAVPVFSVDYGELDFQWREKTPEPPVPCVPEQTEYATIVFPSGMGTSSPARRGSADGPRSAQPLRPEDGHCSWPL", "experiment": "Jurkat-PD-1 Cell Binding High-Content Screening Assay (CBA)", "type": "cell-based", "conditions": "Jurkat-PD-1 cells, PE-labeled PD-L1-Ig 20 nM final; read-out: Jurkat HPD1_PDL1 IC50", "how_it_was_run": "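Read-out: high-content imaging of PE-tagged PD-L1-Ig bound to Jurkat cells overexpressing human PD-1, after fixation with 4% paraformaldehyde and Hoechst 33342 nuclear staining. Ligand was used at 20 nM final for 1 hour, after a 2 h compound exposure at 37° C in serum-containing DMEM.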", "units": {"IC50": "nM"}}
{"smiles": "CC(C)C[C@H]1NC(=O)[C@H](CCCN)NC(=O)[C@H](CCC(=O)O)NC(=O)[C@H](Cc2ccc(-c3ccccc3)cc2)NC(=O)[C@H](C(C)C)NC(=O)[C@H](Cc2cccc(Cl)c2)NC(=O)[C@H](CC(=O)O)NC(=O)[C@H](Cc2ccncc2)NC(=O)[C@H](CN)NC(=O)CSC[C@@H](C(=O)N[C@@H](C)C(N)=O)NC(=O)[C@H]([C@@H](C)O)NC(=O)[C@H](C(C)C)NC(=O)[C@H](CC2CCCCC2)NC(=O)[C@H](CCN)NC1=O", "note": "[Compound 1496] ({CH2CO}-[Dap][4Pal]D[Phe(3-Cl)]V[Bip]E[Orn][dL][Dab][Cha]VTCA-NH2; thioether N-14)", "IC50": 17.9}
{"smiles": "CC(C)C[C@H]1NC(=O)[C@H](CCCN)NC(=O)[C@H](CCC(=O)O)NC(=O)[C@H](Cc2ccc(-c3ccccc3)cc2)NC(=O)[C@H](C(C)C)NC(=O)[C@H](Cc2c[nH]c3ccccc23)NC(=O)[C@H](COCc2ccccc2)NC(=O)[C@H](Cc2ccc(OCC(=O)O)cc2)NC(=O)[C@H](CN)NC(=O)CSC[C@@H](C(=O)N[C@@H](C)C(N)=O)NC(=O)[C@H]([C@@H](C)O)NC(=O)[C@H](C(C)C)NC(=O)[C@H](CC2CCCCC2)NC(=O)[C@H](CCN)NC1=O", "note": "[Compound 1497] ({CH2CO}-[Dap]Y(Carboxymethyl)S(Bn)WV[Bip]E[Orn][dL][Dab][Cha]VTCA-NH2; thioether N-14)", "IC50": 344}
{"smiles": "CC(C)C[C@H]1NC(=O)[C@H](CCCN)NC(=O)[C@H](CCC(=O)O)NC(=O)[C@H](Cc2ccc(-c3ccccc3)cc2)NC(=O)[C@H](C(C)C)NC(=O)[C@H](Cc2c[nH]c3ccccc23)NC(=O)[C@H](CO)NC(=O)[C@H](Cc2ccc(OCC(=O)O)cc2)NC(=O)[C@H](CN)NC(=O)CSC[C@@H](C(=O)N[C@@H](C)C(N)=O)NC(=O)[C@H]([C@@H](C)O)NC(=O)[C@H](C(C)C)NC(=O)[C@H](CC2CCCCC2)NC(=O)[C@H](CCN)NC1=O", "note": "[Compound 1498] ({CH2CO}-[Dap]Y(Carboxymethyl)SWV[Bip]E[Orn][dL][Dab][Cha]VTCA-NH2; thioether N-14)", "IC50": 366}
{"smiles": "CC(C)C[C@H]1NC(=O)[C@H](CCCN)NC(=O)[C@H](CCC(=O)O)NC(=O)[C@H](Cc2ccc(-c3ccccc3)cc2)NC(=O)[C@H](C(C)C)NC(=O)[C@H](Cc2c[nH]c3ccccc23)NC(=O)[C@H](CCO)NC(=O)[C@H](Cc2ccc(OCC(=O)O)cc2)NC(=O)[C@H](CN)NC(=O)CSC[C@@H](C(=O)N[C@@H](C)C(N)=O)NC(=O)[C@H]([C@@H](C)O)NC(=O)[C@H](C(C)C)NC(=O)[C@H](CC2CCCCC2)NC(=O)[C@H](CCN)NC1=O", "note": "[Compound 1499] ({CH2CO}-[Dap]Y(Carboxymethyl)[hSer]WV[Bip]E[Orn][dL][Dab][Cha]VTCA-NH2; thioether N-14)", "IC50": 663}
{"smiles": "COC[C@@H]1NC(=O)[C@H](Cc2ccc(OCC(=O)O)cc2)NC(=O)[C@H](CN)NC(=O)CSC[C@@H](C(=O)N[C@@H](C)C(N)=O)NC(=O)[C@H]([C@@H](C)O)NC(=O)[C@H](C(C)C)NC(=O)[C@H](CC2CCCCC2)NC(=O)[C@H](CCN)NC(=O)[C@@H](CC(C)C)NC(=O)[C@H](CCCN)NC(=O)[C@H](CCC(=O)O)NC(=O)[C@H](Cc2ccc(-c3ccccc3)cc2)NC(=O)[C@H](C(C)C)NC(=O)[C@H](Cc2c[nH]c3ccccc23)NC1=O", "note": "[Compound 1500] ({CH2CO}-[Dap]Y(Carboxymethyl)S(Me)WV[Bip]E[Orn][dL][Dab][Cha]VTCA-NH2; thioether N-14)", "IC50": 238}
{"smiles": "CC(C)C[C@H]1NC(=O)[C@H](CCCN)NC(=O)[C@H](CCC(=O)O)NC(=O)[C@H](Cc2ccc(-c3ccccc3)cc2)NC(=O)[C@H](C(C)C)NC(=O)[C@H](Cc2cccc(Cl)c2)NC(=O)[C@H](CC(=O)O)NC(=O)[C@H](Cc2ccc(OCC(=O)O)cc2)NC(=O)[C@H](Cc2cccnc2)NC(=O)CSC[C@@H](C(=O)N[C@@H](C)C(N)=O)NC(=O)[C@H]([C@@H](C)O)NC(=O)[C@H](C(C)C)NC(=O)[C@H](CC2CCCCC2)NC(=O)[C@H](CCN)NC1=O", "note": "[Compound 1501]", "IC50": 10.7}
{"smiles": "CC(C)C[C@H]1NC(=O)[C@H](CCCN)NC(=O)[C@H](CCC(=O)O)NC(=O)[C@H](Cc2ccc(-c3ccccc3)cc2)NC(=O)[C@H](C(C)C)NC(=O)[C@H](Cc2cccc(C(F)(F)F)c2)NC(=O)[C@H](CC(=O)O)NC(=O)[C@H](Cc2ccc(OCC(=O)O)cc2)NC(=O)[C@H](Cc2cccnc2)NC(=O)CSC[C@@H](C(=O)N[C@@H](C)C(N)=O)NC(=O)[C@H]([C@@H](C)O)NC(=O)[C@H](C(C)C)NC(=O)[C@H](CC2CCCCC2)NC(=O)[C@H](CCN)NC1=O", "note": "[Compound 1502]", "IC50": 16.8}
{"smiles": "CC(C)C[C@H]1NC(=O)[C@H](CCCN)NC(=O)[C@H](CCC(=O)O)NC(=O)[C@H](Cc2ccc(-c3ccccc3)cc2)NC(=O)[C@H](C(C)C)NC(=O)[C@H](Cc2c[nH]c3ccccc23)NC(=O)[C@H](CC(=O)O)NC(=O)[C@H](Cc2ccc(OCC(=O)O)cc2)NC(=O)[C@H](CN)NC(=O)CSC[C@@H](C(=O)N[C@@H](C)C(N)=O)NC(=O)[C@H]([C@@H](C)O)NC(=O)[C@H](C(C)C)NC(=O)[C@H](Cc2cncs2)NC(=O)[C@H](CCN)NC1=O", "note": "[Compound 1503] ({CH2CO}-[Dap]Y(Carboxymethyl)DWV[Bip]E[Orn][dL][Dab][Ala(thiazol-5-yl)]VTCA-NH2; thioether N-14)", "IC50": 42.8}
{"smiles": "COc1cccc(C[C@@H]2NC(=O)[C@H](CC(=O)O)NC(=O)[C@H](Cc3ccc(OCC(=O)O)cc3)NC(=O)[C@H](Cc3ccc(OCC(=O)O)cc3)NC(=O)CSC[C@@H](C(=O)N[C@@H](C)C(N)=O)NC(=O)[C@H]([C@@H](C)O)NC(=O)[C@H](C(C)C)NC(=O)[C@H](CC3CCCCC3)NC(=O)[C@H](CCN)NC(=O)[C@@H](CC(C)C)NC(=O)[C@H](CCCN)NC(=O)[C@H](CCC(=O)O)NC(=O)[C@H](Cc3ccc(-c4ccccc4)cc3)NC(=O)[C@H](C(C)C)NC2=O)c1", "note": "[Compound 1504]", "IC50": 5.2}
{"smiles": "COc1cccc(C[C@@H]2NC(=O)[C@H](CC(=O)O)NC(=O)[C@H](Cc3ccncc3)NC(=O)[C@H](Cc3ccc(OCC(=O)O)cc3)NC(=O)CSC[C@@H](C(=O)N[C@@H](C)C(N)=O)NC(=O)[C@H]([C@@H](C)O)NC(=O)[C@H](C(C)C)NC(=O)[C@H](CC3CCCCC3)NC(=O)[C@H](CCN)NC(=O)[C@@H](CC(C)C)NC(=O)[C@H](CCCN)NC(=O)[C@H](CCC(=O)O)NC(=O)[C@H](Cc3ccc(-c4ccccc4)cc3)NC(=O)[C@H](C(C)C)NC2=O)c1", "note": "[Compound 1505] ({CH2CO}-Y(Carboxymethyl)[4Pal]D[Phe(3-OMe)]V[Bip]E[Orn][dL][Dab][Cha]VTCA-NH2; thioether N-14)", "IC50": 23.7}
{"smiles": "CC(C)C[C@H]1NC(=O)[C@H](CCCN)NC(=O)[C@H](CCC(=O)O)NC(=O)[C@H](Cc2ccc(-c3ccccc3)cc2)NC(=O)[C@H](C(C)C)NC(=O)[C@H](Cc2c[nH]c3ccccc23)NC(=O)[C@H](CC(=O)O)NC(=O)[C@H](Cc2ccc(OCC(=O)O)cc2)NC(=O)[C@H](CN)NC(=O)CSC[C@@H](C(=O)N[C@@H](C)C(N)=O)NC(=O)[C@H]([C@@H](C)O)NC(=O)[C@H](C(C)C)NC(=O)[C@H](Cc2cccc(Cl)c2)NC(=O)[C@H](CCN)NC1=O", "note": "[Compound 1506] ({CH2CO}-[Dap]Y(Carboxymethyl)DWV[Bip]E[Orn][dL][Dab][Phe(3-Cl)]VTCA-NH2; thioether N-14)", "IC50": 56.7}
